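Cells were grown in 96-well plates and exposed to each compound for 48 hours at five concentrations; endpoints were interpolated linearly between bracketing concentrations, or set to the highest concentration if not reached. GI50: concentration for 50% inhibition of growth. TGI marks complete inhibition of growth.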
Experiments:
Assay in all cases: NCI-60 cell line screen, 48 h
MOLT-4 leukemia = tested on: MOLT-4 leukemia
T-47D breast = tested on: T-47D breast
CCRF-CEM leukemia = tested on: CCRF-CEM leukemia
SK-OV-3 ovarian = tested on: SK-OV-3 ovarian
OVCAR-8 ovarian = tested on: OVCAR-8 ovarian
UO-31 renal = tested on: UO-31 renal
A549 NSCLC = tested on: A549 NSCLC
UACC-62 melanoma = tested on: UACC-62 melanoma
UACC-257 melanoma = tested on: UACC-257 melanoma
CAKI-1 renal = tested on: CAKI-1 renal

CCCCCC(C)(C)CCC(=O)OC1OC(COC2OC(COC3OC(CO)C(O)C(O)C3O)C(O)C(O)C2O)C(O)C(O)C1O (centres undefined)
TGI (MOLT-4 leukemia): > 100 µM | TGI (T-47D breast): > 100 µM | TGI (CCRF-CEM leukemia): > 100 µM | TGI (SK-OV-3 ovarian): > 100 µM | TGI (OVCAR-8 ovarian): > 100 µM | TGI (UO-31 renal): > 100 µM | TGI (A549 NSCLC): > 100 µM | TGI (UACC-62 melanoma): > 100 µM | TGI (UACC-257 melanoma): > 100 µM

CC(=O)OC12/C(=N/O)CCCCCC1c1ccccc12 (centres undefined)
TGI (MOLT-4 leukemia): > 100 µM | TGI (CCRF-CEM leukemia): 92.3 µM | TGI (SK-OV-3 ovarian): > 100 µM | TGI (OVCAR-8 ovarian): > 100 µM | TGI (UO-31 renal): > 100 µM | TGI (A549 NSCLC): > 100 µM | TGI (UACC-62 melanoma): > 100 µM | TGI (UACC-257 melanoma): > 100 µM

COc1ccc2nc3cc(Cl)ccc3c(NCCCN(Cc3cc(OC)c(OC)c(OC)c3)Cc3cc(OC)c(OC)c(OC)c3)c2c1
TGI (MOLT-4 leukemia): 7.11 µM | TGI (T-47D breast): 47.4 µM | TGI (CAKI-1 renal): 30.3 µM | TGI (SK-OV-3 ovarian): 32.8 µM | TGI (OVCAR-8 ovarian): 25.5 µM | TGI (UO-31 renal): 26.1 µM | TGI (A549 NSCLC): 30.7 µM | TGI (UACC-62 melanoma): 32.3 µM | TGI (UACC-257 melanoma): 28.8 µM

Cc1ccc(S(=O)(=O)c2c(N)c3nc4ccccc4n3c3nc4ccccc4nc23)cc1
TGI (MOLT-4 leukemia): > 100 µM | TGI (CAKI-1 renal): > 100 µM | TGI (CCRF-CEM leukemia): > 100 µM | TGI (SK-OV-3 ovarian): > 100 µM | TGI (OVCAR-8 ovarian): > 100 µM | TGI (UO-31 renal): > 100 µM | TGI (A549 NSCLC): > 100 µM | TGI (UACC-62 melanoma): > 100 µM | TGI (UACC-257 melanoma): > 100 µM

Fc1ccc2[nH]cc(-c3nc(-c4c[nH]c5ncccc45)cs3)c2c1
GI50 (UO-31 renal): 0.478 µM | TGI (UO-31 renal): > 100 µM | GI50 (A549 NSCLC): 2.65 µM | TGI (A549 NSCLC): > 100 µM | GI50 (UACC-62 melanoma): > 100 µM | TGI (UACC-62 melanoma): > 100 µM | GI50 (UACC-257 melanoma): > 100 µM | TGI (UACC-257 melanoma): > 100 µM

COc1cc(C2SCC(=O)N2c2cc(Cl)c(Cl)cc2Cl)cc(OC)c1OC (centres undefined)
TGI (MOLT-4 leukemia): > 100 µM | TGI (CAKI-1 renal): > 100 µM | TGI (CCRF-CEM leukemia): 77.6 µM | TGI (SK-OV-3 ovarian): > 100 µM | TGI (OVCAR-8 ovarian): > 100 µM | TGI (UO-31 renal): > 100 µM | TGI (A549 NSCLC): > 100 µM | TGI (UACC-62 melanoma): 97.6 µM | TGI (UACC-257 melanoma): > 100 µM

O=C(Nn1c(-c2ccccc2)nc2ccccc2c1=O)c1ccc(CS)cc1
TGI (MOLT-4 leukemia): 62.4 µM | TGI (T-47D breast): > 100 µM | TGI (CCRF-CEM leukemia): 39.3 µM | TGI (SK-OV-3 ovarian): > 100 µM | TGI (OVCAR-8 ovarian): > 100 µM | TGI (UO-31 renal): > 100 µM | TGI (A549 NSCLC): > 100 µM | TGI (UACC-62 melanoma): > 100 µM | TGI (UACC-257 melanoma): > 100 µM

OCC1OC(n2nc(-c3ccccc3)nc2-c2cnccn2)C(O)C(O)C1O (centres undefined)
TGI (MOLT-4 leukemia): > 100 µM | TGI (T-47D breast): > 100 µM | TGI (CCRF-CEM leukemia): > 100 µM | TGI (SK-OV-3 ovarian): > 100 µM | TGI (OVCAR-8 ovarian): > 100 µM | TGI (UO-31 renal): > 100 µM | TGI (A549 NSCLC): > 100 µM | TGI (UACC-62 melanoma): > 100 µM | TGI (UACC-257 melanoma): > 100 µM

Nc1ccc(S(=O)(=O)Nc2nnc(S(N)(=O)=O)s2)cc1
TGI (MOLT-4 leukemia): > 100 µM | TGI (T-47D breast): > 100 µM | TGI (CAKI-1 renal): > 100 µM | TGI (SK-OV-3 ovarian): > 100 µM | TGI (UO-31 renal): > 100 µM | TGI (A549 NSCLC): > 100 µM | TGI (UACC-62 melanoma): > 100 µM

NCCSc1nc2ccccc2s1
TGI (MOLT-4 leukemia): 94.8 µM | TGI (CAKI-1 renal): > 100 µM | TGI (CCRF-CEM leukemia): > 100 µM | TGI (SK-OV-3 ovarian): 79.7 µM | TGI (OVCAR-8 ovarian): > 100 µM | TGI (UO-31 renal): > 100 µM | TGI (A549 NSCLC): > 100 µM | TGI (UACC-62 melanoma): > 100 µM | TGI (UACC-257 melanoma): > 100 µM

Oc1ccc(-c2csc(NNC3=NC/C(=C/c4ccc5c(c4)OCO5)S3)n2)cc1O
TGI (MOLT-4 leukemia): > 100 µM | TGI (T-47D breast): > 100 µM | TGI (CAKI-1 renal): 90.7 µM | TGI (SK-OV-3 ovarian): > 100 µM | TGI (OVCAR-8 ovarian): > 100 µM | TGI (UO-31 renal): 69.2 µM | TGI (A549 NSCLC): > 100 µM | TGI (UACC-257 melanoma): > 100 µM
